Literature values, collected in PMC3667888 (Channels, 2013).

System: Kv1 channels
Details: applied externally; cited from earlier work

CCCCC/C=C\C/C=C\C/C=C\C/C=C\CCCC(=O)NCCO [AEA, anandamide]
inhibition of Kv1 channels by anandamide: not inhibited
